Measurements published in patent publication US20060100431A1, “Biologically active compounds” (Amura Therapeutics Limited, priority 2002, published 2006).

Assays:
Assay type in all cases: biochemical
[1] = biological target: Wild-type cruzipain (Trypanosoma cruzi, UniProt P25779); assay: Trypanosoma cruzi cruzipain peptidase activity assay (Ki); conditions: read-out: Ki, inhibitors of cruzain and cruzipains
In short: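 Native cruzipain from T. cruzi Dm28 epimastigotes, 2.5 nM, in 100 mM sodium phosphate pH 6.75 with 1 mM EDTA and 10 mM L-cysteine, 25 °C, DMSO <1%. Rates taken from continuous fluorogenic substrate read; Ki by regression assuming reversible pure-competitive inhibition.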

[2] = biological target: T1, human cathepsin B (Homo sapiens, UniProt P07858); assay: Cathepsin B peptidase activity assay (Ki); conditions: read-out: Ki, inhibitors of cathepsin B
T1 construct: purchased CN Biosciences
In short: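 Buffer: 10 mM bis-tris-propane pH 6.5, 1 mM EDTA, 5 mM 2-mercaptoethanol, 1 mM CaCl2; DMSO <1%. Ki assumed reversible, pure-competitive, from Ki^app=Ki(1+[So]/KM^app) by non-linear regression.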

[3] = biological target: T2, human cathepsin L (Homo sapiens, UniProt P07711); assay: Cathepsin L peptidase activity assay (Ki); conditions: read-out: Ki, inhibitors of cathepsin L
T2 construct: purchased CN Biosciences
T2 sequence (P07711 114-333): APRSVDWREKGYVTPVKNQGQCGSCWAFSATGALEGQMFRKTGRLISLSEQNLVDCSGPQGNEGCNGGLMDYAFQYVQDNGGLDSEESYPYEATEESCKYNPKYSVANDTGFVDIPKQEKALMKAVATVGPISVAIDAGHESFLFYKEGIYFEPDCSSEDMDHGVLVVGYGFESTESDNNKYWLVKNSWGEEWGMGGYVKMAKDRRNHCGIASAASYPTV
In short: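 Human cathepsin L at 1 nM with Ac-Phe-Arg-AMC at its KM^app (~20 μM) in 10 mM bis-tris-propane pH 6.5, 1 mM EDTA, 5 mM 2-mercaptoethanol, 1 mM CaCl2, DMSO <1%, 25±1° C. Reaction enzyme-initiated; AMC fluorescence (ex 365/em 450 nm) monitored over time.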

[4] = biological target: T3, CPB2.8ΔCTE (Leishmania mexicana, UniProt P36400); assay: Leishmania mexicana cysteine protease B (CPB) peptidase activity assay (Ki); conditions: Ki, inhibitors of Leismania mexicana CPB protease
T3 construct: Wild-type recombinant CPB without the C-terminal extention (i.e. CPB2.8ΔCTE); Dr. Jeremy Mottram (Wellcome Centre for Molecular Parasitology, University of Glasgow)
T3 sequence (P36400 126-343, stated change not applied): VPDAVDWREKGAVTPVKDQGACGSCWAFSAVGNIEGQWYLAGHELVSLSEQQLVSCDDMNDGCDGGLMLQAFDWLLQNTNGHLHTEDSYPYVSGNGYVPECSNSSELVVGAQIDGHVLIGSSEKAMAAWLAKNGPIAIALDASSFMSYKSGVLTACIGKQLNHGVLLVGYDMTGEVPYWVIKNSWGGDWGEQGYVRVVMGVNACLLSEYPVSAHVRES
In short: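 Recombinant CPB2.8ΔCTE (0.25 nM) was assayed in 100 mM sodium acetate pH 5.5 with 1 mM EDTA, 200 mM NaCl and 10 mM DTT at 25 °C, DMSO <1%, enzyme added to start. Rates were taken from continuous fluorescence slopes; apparent Ki was fitted assuming reversible, pure-competitive inhibition.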

Wild-type cruzipain, sequence (P25779 whole entry): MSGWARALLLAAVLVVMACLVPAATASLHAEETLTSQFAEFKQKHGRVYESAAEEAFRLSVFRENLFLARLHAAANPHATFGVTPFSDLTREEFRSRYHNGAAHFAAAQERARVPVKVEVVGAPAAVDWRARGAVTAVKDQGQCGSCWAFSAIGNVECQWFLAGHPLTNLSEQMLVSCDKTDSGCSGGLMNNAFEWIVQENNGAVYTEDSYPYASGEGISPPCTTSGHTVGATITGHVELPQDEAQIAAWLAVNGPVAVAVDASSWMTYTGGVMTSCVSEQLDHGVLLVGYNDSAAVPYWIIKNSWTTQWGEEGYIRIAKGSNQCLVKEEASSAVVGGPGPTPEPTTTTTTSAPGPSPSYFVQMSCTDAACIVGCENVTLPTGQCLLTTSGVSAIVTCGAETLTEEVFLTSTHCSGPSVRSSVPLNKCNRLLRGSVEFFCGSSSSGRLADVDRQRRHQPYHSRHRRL

Row | Compound | Ki [1] [µM] | Ki [2] [µM] | Ki [3] [µM] | Ki [4] [µM]
1 | CC(C)C[C@H](NC(=O)c1ccc(C(C)(C)C)cc1)C(=O)N1CC[C@@H]2[C@H]1C(=O)CN2C(=O)c1ccc(-c2ccccc2)s1 [Example 28, (3aR,6aS)-4-tert-Butyl-N-{(1S)-3-methyl-1-[6-oxo-4-(5-phenyl-thiophene-2-carbonyl)-hexahydro-pyrrolo[3,2-b]pyrrole-1-carbonyl]-butyl}-benzamide] | < 5 | < 5 | < 5 | < 5
2 | CC(C)C[C@H](NC(=O)c1ccc(C(C)(C)C)cc1)C(=O)N1CC[C@@H]2[C@H]1C(=O)CN2C(=O)c1csc2ccccc12 [Example 31] | < 5 | < 5 | < 5 | < 5
3 | CC(C)C[C@H](NC(=O)c1ccc(N(C)C)cc1)C(=O)N1CC[C@@H]2[C@H]1C(=O)CN2C(=O)c1cccc(Cl)c1 [Example 73, (3aR,6aS)-N-{(1S)-1-[4-(3-Chloro-benzoyl)-6-oxo-hexahydro-pyrrolo[3,2-b]pyrrole-1-carbonyl]-3-methyl-butyl}-4-dimethylamino-benzamide] | < 5 | < 5 | < 5 | < 5
4 | O=C(N[C@@H](CSCc1ccccc1)C(=O)N1CC[C@@H]2[C@H]1C(=O)CN2C(=O)c1ccccc1)c1ccsc1 [Example 251, (3aR,6aS)-Thiophene-3-carboxylic acid [(1R)-2-(4-benzoyl-6-oxo-hexahydro-pyrrolo[3,2-b]pyrrole-1-yl)-1-benzylsulfanylmethyl-2-oxo-ethyl]-amide] | – | < 5 | < 5 | –
5 | O=C(N[C@@H](CC1CCCCC1)C(=O)N1CC[C@@H]2[C@H]1C(=O)CN2C(=O)c1ccccc1)c1cccc(Oc2ccccc2)c1 [Example 259, (3aR,6aS)-N-[(1S)-2-(4-Benzoyl-6-oxo-hexahydro-pyrrolo[3,2-b]pyrrol-1-yl)-1-cyclohexylmethyl-2-oxo-ethyl]-3-phenoxy-benzamide] | – | < 5 | < 5 | –
6 | O=C(N[C@@H](CSCc1ccccc1)C(=O)N1CC[C@@H]2[C@H]1C(=O)CN2C(=O)C1CCCCC1)c1ccsc1 [Example 273, (3aR,6aS)-Thiophene-3-carboxylic acid [(1R)-1-benzylsulfanylmethyl-2-(4-cyclohexanecarbonyl-6-oxo-hexahydro-pyrrolo[3,2-b]pyrrol-1-yl)-2-oxo-ethyl]-amide] | – | < 5 | < 5 | –
7 | Cc1cccc(C(=O)N2CC(=O)[C@@H]3[C@H]2CCN3C(=O)[C@H](CSCc2ccccc2)NC(=O)c2ccsc2)c1 [Example 275, (3aR,6aS)-Thiophene-3-carboxylic acid {(1R)-1-benzylsulfanylmethyl-2-[4-(3-methyl-benzoyl)-6-oxo-hexahydro-pyrrolo[3,2-b]pyrrol-1-yl]-2-oxo-ethyl}-amide] | – | < 5 | < 5 | –
8 | O=C(N[C@@H](CSCc1ccccc1)C(=O)N1CC[C@@H]2[C@H]1C(=O)CN2C(=O)c1ccccc1)c1ccc2ncsc2c1 [Example 281, (3aR,6aS)-Benzothiazole-6-carboxylic acid [(1R)-2-(4-benzoyl-6-oxo-hexahydro-pyrrolo[3,2-b]pyrrole-1-yl)-1-benzylsulfanylmethyl-2-oxo-ethyl]-amide] | – | < 5 | < 5 | –
9 | O=C(N[C@@H](CC1CCCCC1)C(=O)N1CC[C@@H]2[C@H]1C(=O)CN2C(=O)c1ccccc1)c1ccccc1 [Example 290, (3aR,6aS)-N-[(1S)-2-(4-Benzoyl-6-oxo-hexahydro-pyrrolo[3,2-b]pyrrol-1-yl)-1-cyclohexylmethyl-2-oxo-ethyl]-benzamide] | < 5 | < 5 | < 5 | –

Now from value to compound, other results behind:

Row | Ki [1] [µM] | Ki [2] [µM] | Ki [3] [µM] | Compound | Ki [4] [µM]
10 | < 5 | < 5 | < 5 | CC(C)C[C@H](NC(=O)c1cc2ccccc2s1)C(=O)N1CC[C@@H]2[C@H]1C(=O)CN2C(=O)c1cccnc1 [Example 15, (3aR,6aS)-Benzo[b]thiophene-2-carboxylic acid {(1S)-3-methyl-1-[6-oxo-4-(pyridine-3-carbonyl)-hexahydro-pyrrolo[3,2-b]pyrrole-1-carbonyl]-butyl}-amide] | –
11 | < 5 | < 5 | < 5 | O=C(N[C@@H](CC1CCCCC1)C(=O)N1CC[C@@H]2[C@H]1C(=O)CN2C(=O)c1ccccc1)c1csc2ccccc12 [Example 254, (3aR,6aS)-Benzo[b]thiophene-3-carboxylic acid [(1S)-2-(4-benzoyl-6-oxo-hexahydro-pyrrolo[3,2-b]pyrrole-1-yl)-1-cyclohexylmethyl-2-oxo-ethyl]-amide] | –
12 | < 5 | < 5 | < 5 | O=C(N[C@@H](CC1CCCCC1)C(=O)N1CC[C@@H]2[C@H]1C(=O)CN2C(=O)c1cccc2ccccc12)c1ccsc1 [Example 255, (3aR,6aS)-Thiophene-3-carboxylic acid {(1S)-1-cyclohexylmethyl-2-[4-(naphthalene-1-carbonyl)-6-oxo-hexahydro-pyrrolo[3,2-b]pyrrol-1-yl]-2-oxo-ethyl}-amide] | –
13 | – | < 5 | < 5 | O=C(N[C@@H](CC1CCCCC1)C(=O)N1CC[C@@H]2[C@H]1C(=O)CN2C(=O)c1ccc(-c2ccccc2)s1)c1ccsc1 [Example 258, (3aR,6aS)-Thiophene-3-carboxylic acid {(1S)-1-cyclohexylmethyl-2-oxo-2-[6-oxo-4-(5-phenyl-thiophene-2-carbonyl)-hexahydro-pyrrolo[3,2-b]pyrrole-1-yl]-ethyl}-amide] | –
14 | < 5 | < 5 | < 5 | CS(=O)(=O)c1ccccc1C(=O)N1CC(=O)[C@@H]2[C@H]1CCN2C(=O)[C@H](CSCc1ccccc1)NC(=O)c1ccsc1 [Example 261, (3aR,6aS)-Thiophene-3-carboxylic acid {(1R)-1-benzylsulfanylmethyl-2-[4-(2-methanesulfonyl-benzoyl)-6-oxo-hexahydro-pyrrolo[3,2-b]pyrrol-1-yl]-2-oxo-ethyl}-amide] | –
15 | – | < 5 | < 5 | CS(=O)(=O)c1cccc(C(=O)N2CC(=O)[C@@H]3[C@H]2CCN3C(=O)[C@H](CSCc2ccccc2)NC(=O)c2ccsc2)c1 [Example 262, (3aR,6aS)-Thiophene-3-carboxylic acid {(1R)-1-benzylsulfanylmethyl-2-(4-(3-methanesulfonyl-benzoyl)-6-oxo-hexahydro-pyrrolo[3,2-b]pyrrol-1-yl)-2-oxo-ethyl}-amide] | –
16 | – | < 5 | < 5 | O=C(N[C@@H](CSCc1ccccc1)C(=O)N1CC[C@@H]2[C@H]1C(=O)CN2C(=O)c1ccccc1)C(c1ccccc1)c1ccccc1 [Example 269, (3aR,6aS)-N-[(1R)-2-(4-Benzoyl-6-oxo-hexahydro-pyrrolo[3,2-b]pyrrol-1-yl)-1-benzylsulfanylmethyl-2-oxo-ethyl]-2,2-diphenyl-acetamide] | –
17 | < 5 | < 5 | < 5 | Cc1cccc(C(=O)N2CC(=O)[C@@H]3[C@H]2CCN3C(=O)[C@H](CC2CCCCC2)NC(=O)c2ccsc2)c1 [Example 292, (3aR,6aS)-Thiophene-3-carboxylic acid {(1S)-1-cyclohexylmethyl-2-[4-(3-methyl-benzoyl)-6-oxo-hexahydro-pyrrolo[3,2-b]pyrrol-1-yl]-2-oxo-ethyl}-amide] | –
